Test results taken from patent publication US20260250318A1, “COMPOSITIONS AND METHODS FOR CROSSING THE BLOOD BRAIN BARRIER” (VOYAGER THERAPEUTICS, INC., priority 2022, published 2026).

Columns and labels:
Details in all cases: synthetic library passage 3, intravenous, relative to wild-type AAV9
[1] = test system: brain; experiment: NGS fold enrichment of synthetic library (passage 3) in C57Bl/6 mice, first cross-species screen; type: in vivo
How it was run: (§1)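 Synthetic capsid library (passage 3) was given intravenously […] to NHPs aged 2-4 years and to BALB/c and C57Bl/6 mice (n=3 each, 6-8 weeks). After about 28 days in vivo, tissue RNA was RT-PCR amplified and NGS-sequenced; values are fold enrichment per variant relative to wild-type AAV9.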

[2] = test system: brain, spinal cord, and DRG of the NHPs; experiment: NGS fold enrichment of synthetic library (passage 3) in NHPs, first cross-species screen; type: in vivo, cynomolgus macaques (Macaca fascicularis)
How it was run: as §1

[3] = test system: brain; experiment: NGS fold enrichment of synthetic library (passage 3) in BALB/c mice, first cross-species screen; type: in vivo
How it was run: as §1

[4] = RNA from brain of C57Bl/6 mice, NGS
[5] = RNA from spinal cord of NHPs, NGS
[6] = RNA from brain of BALB/c mice, NGS

Row | Sequence | Fold enrichment over AAV9 in the brain of Mice (C57Bl/6) ([1]; RNA NGS, brain of C57Bl/6 mice) [fold] | Fold enrichment over AAV9 in the brain of NHPs ([2]; RNA NGS, brain of NHPs) [fold] | Fold enrichment over AAV9 in the spinal cord of NHPs ([2]; RNA NGS, spinal cord of NHPs) [fold] | Fold enrichment over AAV9 in the brain of Mice (BALB/c) ([3]; RNA NGS, brain of BALB/c mice) [fold] | Fold enrichment over AAV9 in the brain of Mice (C57Bl/6) [1, 4] [fold] | Fold enrichment over AAV9 in the brain of NHPs ([2]; RNA from brain of NHPs, NGS) [fold] | Fold enrichment over AAV9 in the spinal cord of NHPs [2, 5] [fold] | Fold enrichment over AAV9 in the brain of Mice (BALB/c) [3, 6] [fold]
1 | GSGQNQQLQTLIRT | 0.813 | 1.538 | 1.425 | 0.514 |  |  |  | 
2 | GSGQNQQLSAKSST | 1.224 | 1.809 | 1.567 | 1.115 |  |  |  | 
3 | GSGQNQQLSGKSVT | 1.276 | 1.070 | 1.524 | 0.930 |  |  |  | 
4 | GSGQNQQLSRDAST | 1.877 | 1.754 | 3.716 | 0.611 |  |  |  | 
5 | GSGQNQQLVSRVQT |  |  |  |  | 0.656 | 1.381 | 1.195 | 0.466
6 | GSGQNQQMAGAFRT | 1.307 | 1.003 | 1.784 | 0.762 |  |  |  | 
7 | GSGQNQQMPGLSST |  |  |  |  | 0.234 | 1.204 | 1.887 | 0.181
8 | GSGQNQQNLGKLNT |  |  |  |  | 0.919 | 1.141 | 0.000 | 0.687
9 | GSGQNQQPHLKSLT | 1.096 | 1.457 | 5.016 | 0.740 |  |  |  | 
10 | GSGQNQQPLDTSRT | 0.491 | 1.015 | 0.775 | 0.376 |  |  |  | 
11 | GSGQNQQPNSGSMT | 0.588 | 1.064 | 0.925 | 0.339 |  |  |  | 
12 | GSGQNQQPPLATRT |  |  |  |  | 0.593 | 1.386 | 2.295 | 0.287
13 | GSGQNQQPSAFSKT |  |  |  |  | 1.309 | 1.220 | 4.906 | 0.754
14 | GSGQNQQPSLRQST |  |  |  |  | 1.315 | 1.356 | 2.905 | 0.554
15 | GSGQNQQPSSRVTT | 0.784 | 1.012 | 2.179 | 0.504 |  |  |  | 
16 | GSGQNQQQIGGNST | 0.877 | 1.741 | 6.169 | 0.576 |  |  |  | 
17 | GSGQNQQQRDGTLT |  |  |  |  | 0.760 | 1.152 | 0.387 | 0.730
